Laboratory results: ChEMBL document CHEMBL3507680, “University of Dundee, Gates Library screen for HepG2 cell viability”

Assay: Human HepG2 cell viability assay in 384 well format
Format: toxicity, cell-based
Set-up: dose 125 nL, time 70.5 hour; cytotoxicity at 70.5 h: concentration not given beside the values
Conditions: HepG2 cells, read-out: Inhibition

Row | SMILES | cytotoxicity at 70.5 h [%]
1 | Cc1noc(C[C@@H]2COC[C@H]3CN(S(C)(=O)=O)C[C@@H]23)n1 | -5.3
2 | c1cncc(CNc2ccccc2-c2nn[nH]n2)c1 | -5.95
3 | COCCN1CC2(CCN(C(=O)c3ccno3)CC2)c2ccccc21 | 27.9
4 | Cc1ccc(CN(C)CC(=O)NC2(C)CCS(=O)(=O)C2)cc1 (stereo not given) | -3.98
5 | CN(C)C(=O)n1c(C(=O)NC(C)(C)CO)cc2c1c1ccccc1n2C | -6.99
6 | CCc1ccc(CN2CCc3ncnc(-c4cccnc4)c3CC2)o1 | -6.08
7 | CN(CCOc1cccc(S(C)(=O)=O)c1)c1ccccc1 | -2.26
8 | CCn1nc(C)c2ncnc(NCCCn3ccnc3)c21 | -9.37
9 | O=C(Nc1cccc(N2CCCC2)c1)C1CCCN1c1nccs1 (stereo not given) | -2.18
10 | CCN1Cc2nc(OC)c(CNC(=O)C3CCS(=O)(=O)CC3)cc2C1=O | -2.6
11 | CCN(CC)S(=O)(=O)N1CCCC1C(=O)N1CCSCC1 (stereo not given) | -2.8
12 | CN(C)C(=O)CO[C@H]1CN(Cc2ccoc2)[C@@H]2COC[C@H]12 | -5.51
13 | COc1ccc(F)cc1CSCC(=O)N(C)C1CC1 | -0.442
14 | N#Cc1c(N2CCN(CC3CCOC3)CC2)nc2ccccn12 (stereo not given) | -1.45
15 | CN(C)c1nccnc1C1CCCN(c2cnccn2)C1 (stereo not given) | -3.09
16 | CC(=O)N1[C@H](Cn2cncn2)C[C@@H]2CN(C(=O)NC3CC3)CC[C@@H]21 | 5.13
17 | Cc1nc(C)n(CC2CN(CCn3cccn3)CCO2)n1 (stereo not given) | 31.9
18 | O=S(=O)(NCC1COc2ccccc2C1)N1CCCCCC1 (stereo not given) | -7.48
19 | NCCSc1nccc(-c2cnc(C3CC3)nc2-c2ccco2)n1 | 21.8
20 | Cc1cnc(N2CCOC3(CCCN(C(=O)C(C)C)C3)C2)nc1 (stereo not given) | -3.83
21 | O=S(=O)(c1ccccc1)N1CCN(CCn2ccnc2)CC1 | 1.34
22 | CN(C)Cc1ccc(C2CCCCN2C(=O)c2ncccc2O)cc1 (stereo not given) | -3.45
23 | O=C1CCC(c2nc(C3CCN(C(=O)C4CC4)CC3)no2)N1 (stereo not given) | -4.42

Row | SMILES | cytotoxicity at 70.5 h [%]
24 | CCn1nc(C)c2nc(C)nc(NC3CCCC3)c21 | -7.43
25 | CC(NC(=O)c1ccoc1)C(=O)N(C)Cc1ccsc1 (stereo not given) | -5.45
26 | COc1ccc(CC(=O)N2CCCCC2Cn2cc(C)cn2)cc1F (stereo not given) | 2.82
27 | Cc1noc(C)c1CNC1CCN(c2ccccc2OC(F)F)C1 (stereo not given) | -3.18
28 | CNCc1nc(-c2ccc3c(c2)OCO3)c[nH]1 | -13.6
29 | O=C(CCc1nccs1)N1CCC(C(=O)O)(c2ccccc2)CC1 | -0.696
30 | CSc1sc(NC(=O)Cc2c(C)nc(C)[nH]c2=O)nc1C | 3.66
31 | CCOC(=O)c1sc2ccsc2c1CNC(=O)COC | 3.32
32 | COc1ccccc1CC1CCCN(CC(=O)NC2CC2)C1 (stereo not given) | -8.21
33 | Cc1nc(NCc2cccnc2)c2c(n1)c(C)nn2C | -11.5
34 | CC1N(c2cnn(C)c2)C(=O)COC12CCN(c1ncccn1)CC2 (stereo not given) | -1.11
35 | CC(C)(C)c1cc(NC(=O)CN2CCCC2Cn2cncn2)on1 (stereo not given) | 21.1
36 | CC(=O)N[C@@H]1CN(C(=O)c2cnccn2)C[C@H]1c1ccc(C)cc1 | -11.4
37 | COc1ccc(OCCNCc2c(C)nn(C)c2N(C)C)cc1 | 31.1
38 | c1cnn(CC2CCCN2Cc2cn3ccsc3n2)c1 (stereo not given) | 6.04
39 | Cn1c(N)nnc1SCc1cc(Br)ccc1Cl | -10.9
40 | CCCc1nc(C(=O)N2C[C@H](CO)C[C@H](CN3CCOCC3)C2)cs1 | -8.72
41 | CCCC(=O)Nc1cnn(CC(=O)Nc2ccc(SC)cc2)c1 | -5.62
42 | CCOc1cccc(C(C)NCc2ccc(OC)c(OC)c2OC)c1 (stereo not given) | 6.82
43 | Cn1ccc(CN2CCCC23CCNCC3)n1 | -5.64
44 | Cc1cc(F)ccc1OC1(C(=O)O)CCN(Cc2cccnc2N)CC1 | 0.105
45 | COc1ccc(C(=O)Nc2ccccc2-c2ccc(=O)n(C)n2)nn1 | 1.94
46 | CNC(=O)[C@@H]1CN(C(=O)COC)C[C@H]1c1ccnc(N2CCCC2)n1 | -5.21

Row | SMILES | cytotoxicity at 70.5 h [%]
47 | Cn1ccnc1S(=O)(=O)C(C(=O)N1CCCCC1)c1ccccc1 (stereo not given) | 23.2
48 | Cc1cc2nc(-c3cn(C4CCNCC4)nn3)[nH]c2cc1C | -2.26
49 | O=C(Cc1n[nH]c2ccccc12)N1CCCC1Cn1cccn1 (stereo not given) | 0.964
50 | O=S(=O)(c1ccccc1)N1CCCN(CCCn2ccnc2)CC1 | -10.3
51 | COCc1nc(CN2CCOC(CNc3cccnn3)C2)cs1 (stereo not given) | -11.6
52 | Cc1c(C(=O)N2CCC2(C)C)nnn1-c1cccc2cnccc12 | -12.7
53 | CCn1nc(C)c2nc(C(C)C)nc(N3CCCCC3)c21 | -11.3
54 | CN(Cc1nnc2ccccn12)C(=O)CCNC(=O)C(C)(C)C | 17.1
55 | OCCc1cn(CC2CCCN(Cc3nccs3)C2)nn1 (stereo not given) | 11.8
56 | Cc1ccoc1-c1nnc(CN2CCn3c(nnc3C3CC3)C2)o1 | 31.2
57 | Cc1nn(C)c(Oc2ccccc2)c1CNC1CCCCNC1=O (stereo not given) | -6.4
58 | O=C(NCCC(=O)N1CCCCCC1)c1c(O)cc(F)cc1F | 9.05
59 | O=C(C1CCC1)N1CCC(=O)N(C2CC2)Cc2cc(F)ccc21 | 1.48
60 | COCC(=O)N1CCN(c2cc(-n3cccc3)nc(C)n2)CC1 | 5.98
61 | CCN1CCC[C@@H]1CNC(=O)c1cc(COc2ccccc2)[nH]n1 | -1.42
62 | Cn1nc(C(=O)NC2CC(C)(C)NC(C)(C)C2)cc1NC(=O)C1CC1 | -8.61
63 | CN(C)CCN1CCC2(CCCN(C(=O)C3CCC3)C2)CC1 | -1.03
64 | CCC(=O)N1CCC(c2nnc(Cn3cncn3)n2C2CC2)CC1 | 6.31
65 | O=C1C[C@H]2[C@@H](CCN2C(=O)Cc2cccs2)N1Cc1cccnc1 | -17
66 | CN(CCC(F)(F)F)C(=O)C1CCCN1C(=O)OC(C)(C)C (stereo not given) | 0.473
67 | CCN(CC)c1ccc(NS(=O)(=O)c2cccnc2)cn1 | -1.98
68 | CC(C(=O)Nc1cccc(Cl)c1SC(F)F)S(C)(=O)=O (stereo not given) | -3.11
69 | COCCN1C[C@H]2[C@@H](C1)N(Cc1cnn(C)c1)CC[C@H]2OC | -11.3

Row | SMILES | cytotoxicity at 70.5 h [%]
70 | O[C@H]1[C@H](NCCSc2ccccn2)c2ccccc2C12CCNCC2 | 1.07
71 | O=C(CCn1cccn1)NCCOc1ncc(Cl)cc1Cl | -10.6
72 | Cc1ncc(CNC(=O)c2oc3ccccc3c2CN(C)C)s1 | -8.45
73 | CCn1cnnc1C1CCN(C(=O)c2ccc3c(c2)nnn3C)CC1 | 22.3
74 | CCN(Cc1ccncc1)C1CCCN(Cc2ccc(F)cc2OC)C1 (stereo not given) | -1.99
75 | O=C(O)CN1CCC(C(F)(F)F)CC1 | -2.76
76 | O=c1n(Cc2ccccn2)nc(C2CCNCC2)n1Cc1ccccc1 | 1.51
77 | CCOC(=O)[C@H]1CNC[C@@H]1C(=O)OCC | 3.89
78 | CCC1CCC(CNC(=O)c2c[nH]c(=O)c(Cl)c2)CC1 (stereo not given) | -9.94
79 | O=C1CC(NCc2cnc(-c3cccs3)nc2)CN1c1ccccc1 (stereo not given) | -2.68
80 | CN(C)S(=O)(=O)c1ccc(CN2CCCC2c2ccsc2)o1 (stereo not given) | -7.08
81 | O=C(c1ccoc1)N1CCc2ncnc(NCc3ccccn3)c2CC1 | 25.5
82 | CCN1CCCN(C(=O)c2ccc(NC(=O)CC(C)C)c(C)c2)CC1 | -12.9
83 | NC(=O)CN1CCC(c2noc3cc(F)ccc23)CC1 | 39.4
84 | CSCCCN1CC[C@@H](NC(=O)c2cnccn2)[C@H](O)C1 | -10.8
85 | Cc1nn(-c2ccccc2)c(C)c1-c1ccnc(N2CCC(O)CC2)n1 | -5.36
86 | CC(C)c1noc(CCC(=O)N2CCN(Cc3ccncc3)CC2)n1 | -7.35
87 | CC(O)C(=O)N1CCC(c2[nH]ncc2-c2ccccc2)CC1 (stereo not given) | 20.2
88 | CN(C)CCOCC1CN(C(=O)N2CCCC2)Cc2ccnn2C1 (stereo not given) | -5.66
89 | CN(C)CCn1c([C@H]2CCCO2)cc2cccnc21 | -2.03
90 | COc1cc(NC2CCS(=O)(=O)C2)ncn1 (stereo not given) | -17.8
91 | COCC(O)CNC(=O)c1coc(COc2cccc(F)c2)n1 (stereo not given) | -4.43
92 | O=c1c2ccccc2nc2n1CCC2O (stereo not given) | -12.8

Row | SMILES | cytotoxicity at 70.5 h [%]
93 | Cc1c(S(=O)(=O)N2CCCC2c2nnc(-c3ccsc3)o2)cnn1C (stereo not given) | 0.227
94 | O=C(CCc1ccsc1)N(Cc1ccccn1)C1CC1 | -2.46
95 | Cc1n[nH]c(C2CN(CCCOc3cccc(Cl)c3)CCO2)n1 (stereo not given) | -14.2
96 | COC(=O)c1cccn1C1CCN(S(=O)(=O)c2ccccc2)CC1 | 3.76
97 | Nc1nonc1C(=O)N1Cc2ccccc2OC2(CCOCC2)C1 | 2.48
98 | Cc1csc([C@H]2C[C@@H]3CCN(C(=O)c4cnccn4)C[C@H]3O2)n1 | -3.11
99 | CC1=Nc2c(c(=O)[nH]n2C2CCCCC2)C(c2cccnc2)S1 (stereo not given) | -12
100 | O=C(CN1CCOCS1(=O)=O)NCc1ccccc1 | 25.7
101 | CC(C)c1n[nH]c(C2CN(C(=O)c3cc(Cl)c[nH]3)CCO2)n1 (stereo not given) | -8.73
102 | CCc1nc(CN2CCCN(Cc3noc(C4CC4)n3)CC2)cs1 | -0.776
103 | CCOC(=O)N1CCC(NC(C)c2ccccc2-n2cccn2)CC1 (stereo not given) | 35.4
104 | O=C(COCc1ccccc1Cl)N1CCN(c2cnccn2)CC1 | -6.52
105 | Cc1nc(C)n(CC2CCCN2Cc2ncc(-c3ccccc3)o2)n1 (stereo not given) | -2.3
106 | O=C(CCC1CCCO1)NCCCO (stereo not given) | -18.3
107 | COc1c(C2CCCN2CC(=O)N(C)Cc2ccco2)c(C)nn1C (stereo not given) | -5.02
108 | COCCCNc1c(-c2ccc(Cl)cc2)c(=O)c1=O | 6.7
109 | Cc1nn(C)c(C)c1C(C)NC(=O)Nc1cccnc1N1CCCC1 (stereo not given) | -15.8
110 | Cc1oc(-c2ccco2)nc1CC(=O)N1CCN(CC(C)O)CC1 (stereo not given) | 11.6
111 | COc1cc(CN2CCC(COCc3ccccc3)CC2)cc(OC)c1 | 19.3
112 | Cc1ccc(CN2CCN(C3CCC3)CC2CCO)o1 (stereo not given) | -10.1
113 | Cc1cccc(CN2C(=O)C[C@@H]3[C@@H]2CCN3Cc2ccsc2)n1 | -8.36
114 | O=S(=O)(CCCN1CCOC(Cn2cccn2)C1)c1ccccc1 (stereo not given) | 2.06
115 | CCOC(=O)C1CN(CC2CC2)Cc2ncn(CC)c21 (stereo not given) | -2.34
